Data reported in patent publication US20100190151A1 (priority 2003, published 2010).

What follows are molecules tested on DNA polymerase. Conditions: surface-anchored primer/template DNA, stepwise reactions, FIG. 2(b); Cy5-dCTP detected by spFRET with Cy3-dUTP.
Method: FIG. 2a(1) is an image of the slide surface: Annealed primer/template DNA molecules detected by Cy3 fluorescence from the labeled primer. Scale bar, 10 µm. […] FIG. 2a(3) is an image of the slide surface: Labeled nucleotide fluorescence after successful incorporation by DNA polymerase. Note; prior to the incorporation reaction, the primer fluorescence shown in FIG. 2a(1) was photo-bleached. After incubation of template DNA molecules with DNA polymerase and a labeled dNTP, the sequencing chamber was flushed to prevent fluorescent detection of unincorporated labeled dNTPs. […] FIG. 2a(5) is an overlay of the primer/template positions with the labeled nucleotide positions.
Observations of single-molecule fluorescence can be made using a conventional microscope equipped with total internal reflection (TIR) illumination. […] First, the surface of a quartz slide is chemically treated to specifically anchor template nucleic acid molecules while preventing non-specific binding of labeled dNTPs present in the sequencing reaction. A plastic flow cell is then attached to the surface of the slide to facilitate the exchange of buffers and reagents. Next, biotinylated oligonucleotides, serving as sequencing templates, are annealed to a fluorescently labeled primer. Template nucleic acid molecules are bound to the slide surface via streptavidin and biotin at a surface density low enough to resolve single nucleic acid molecules. The primed templates are detected via their fluorescent tags and their locations are recorded for future reference. After noting the location of each template nucleic acid molecule, their fluorescent tags are photo-bleached. Labeled dNTPs and polymerase (or polymerizing agent) are then washed in and out of the flow cell, one dNTP at a time, while the known locations of the template nucleic acid molecules are monitored for fluorescence, an indication that the primer annealed to the template nucleic acid molecule had been extended by one labeled nucleotide.
In the case of Cy5-dCTP, the “incorporation of labeled dNTP by DNA polymerase (selectivity and fidelity)” value (“incorporation … (selectivity and fidelity)” below) is reported as “correctly incorporated”.
In the case of Cy5-dUTP, the “incorporation … (selectivity and fidelity)” value is reported as “correctly refusing to incorporate”.
Cy3-dUTP was tested, and the “incorporation … (selectivity and fidelity)” value was “correctly incorporated”.
`CCN1/C(=C/C=C/C2=[N+](CCCCCC(=O)NCC#Cc3cn(C4CC(O)C(COP(=O)([O-])OP(=O)([O-])OP(=O)([O-])[O-])O4)c(=O)nc3N)c3cc(S(=O)(=O)O)ccc3C2(C)C)C(C)(C)c2ccc(S(=O)(=O)[O-])cc21.[Li+].[Li+].[Li+].[Li+]` (stereo not shown) [Cy3-dCTP] was tested, and the “incorporation … (selectivity and fidelity)” value was “correctly refusing to incorporate”.
